Laboratory results taken from the supplement of paper PMC6045584.
± gives the standard deviation of the averaged measurements.

Tests used:
AFIMOXIFENE = compound: CC/C(=C(\c1ccc(O)cc1)c1ccc(OCCN(C)C)cc1)c1ccccc1 [AFIMOXIFENE]; test: surviving fraction relative to DMSO-only wells; higher = less growth inhibition; conditions: exposure time: 5 days
In short: (§1)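 At 250–500 cells per well in 384-well plates, log-phase tumour cell lines were seeded and, 24 hours on, exposed continuously for five days to inhibitors at 0.5, 1, 5, 10, 50, 100, 500 and 1000 nM. Viability readout was CellTiter-Glo luminescence, reported as surviving fraction normalised to the median of DMSO-only wells.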

CABOZANTINIB = compound: COc1cc2nccc(Oc3ccc(NC(=O)C4(C(=O)Nc5ccc(F)cc5)CC4)cc3)c2cc1OC [CABOZANTINIB]; test: as above; conditions: exposure time: 5 days
In short: as §1

SCC36 HEADNECK
surviving fraction (AFIMOXIFENE; 0.5 nM): 1.07 ± 0.16 | surviving fraction (AFIMOXIFENE; 1 nM): 0.969 ± 0.026 | surviving fraction (AFIMOXIFENE; 5 nM): 1.13 ± 0.046 | surviving fraction (AFIMOXIFENE; 10 nM): 1.1 ± 0.047 | surviving fraction (AFIMOXIFENE; 50 nM): 1.07 ± 0.047 | surviving fraction (AFIMOXIFENE; 100 nM): 1.1 ± 0.078 | surviving fraction (AFIMOXIFENE; 500 nM): 0.883 ± 0.06 | surviving fraction (AFIMOXIFENE; 1000 nM): 0.732 ± 0.074 | surviving fraction (CABOZANTINIB; 0.5 nM): 1.03 ± 0.092 | surviving fraction (CABOZANTINIB; 1 nM): 0.961 ± 0.074 | surviving fraction (CABOZANTINIB; 5 nM): 1.09 ± 0.066 | surviving fraction (CABOZANTINIB; 10 nM): 1.02 ± 0.032 | surviving fraction (CABOZANTINIB; 50 nM): 1.1 ± 0.09 | surviving fraction (CABOZANTINIB; 100 nM): 1.07 ± 0.073 | surviving fraction (CABOZANTINIB; 500 nM): 1.07 ± 0.11 | surviving fraction (CABOZANTINIB; 1000 nM): 0.88 ± 0.081

SCC47 HEADNECK
surviving fraction (AFIMOXIFENE; 0.5 nM): 1.26 ± 0.02 | surviving fraction (AFIMOXIFENE; 1 nM): 1.2 ± 0.038 | surviving fraction (AFIMOXIFENE; 5 nM): 1.31 ± 0.11 | surviving fraction (AFIMOXIFENE; 10 nM): 1.27 ± 0.13 | surviving fraction (AFIMOXIFENE; 50 nM): 1.31 ± 0.085 | surviving fraction (AFIMOXIFENE; 100 nM): 1.29 ± 0.12 | surviving fraction (AFIMOXIFENE; 500 nM): 1.24 ± 0.047 | surviving fraction (AFIMOXIFENE; 1000 nM): 1.2 ± 0.055 | surviving fraction (CABOZANTINIB; 0.5 nM): 0.891 ± 0.022 | surviving fraction (CABOZANTINIB; 1 nM): 0.894 ± 0.019 | surviving fraction (CABOZANTINIB; 5 nM): 1.06 ± 0.062 | surviving fraction (CABOZANTINIB; 10 nM): 1.03 ± 0.16 | surviving fraction (CABOZANTINIB; 50 nM): 1.05 ± 0.14 | surviving fraction (CABOZANTINIB; 100 nM): 1.08 ± 0.069 | surviving fraction (CABOZANTINIB; 500 nM): 0.844 ± 0.025 | surviving fraction (CABOZANTINIB; 1000 nM): 0.922 ± 0.041

SCC90 HEADNECK
surviving fraction (AFIMOXIFENE; 0.5 nM): 1.14 ± 0.052 | surviving fraction (AFIMOXIFENE; 1 nM): 1.12 ± 0.11 | surviving fraction (AFIMOXIFENE; 5 nM): 1.1 ± 0.045 | surviving fraction (AFIMOXIFENE; 10 nM): 1.19 ± 0.068 | surviving fraction (AFIMOXIFENE; 50 nM): 1.12 ± 0.074 | surviving fraction (AFIMOXIFENE; 100 nM): 1.09 ± 0.059 | surviving fraction (AFIMOXIFENE; 500 nM): 1.11 ± 0.025 | surviving fraction (AFIMOXIFENE; 1000 nM): 1.05 ± 0.075 | surviving fraction (CABOZANTINIB; 0.5 nM): 0.858 ± 0.053 | surviving fraction (CABOZANTINIB; 1 nM): 0.819 ± 0.089 | surviving fraction (CABOZANTINIB; 5 nM): 0.9093 ± 0.0042 | surviving fraction (CABOZANTINIB; 10 nM): 0.997 ± 0.086 | surviving fraction (CABOZANTINIB; 50 nM): 1.09 ± 0.17 | surviving fraction (CABOZANTINIB; 100 nM): 1.05 ± 0.15 | surviving fraction (CABOZANTINIB; 500 nM): 0.852 ± 0.081 | surviving fraction (CABOZANTINIB; 1000 nM): 0.874 ± 0.087

SG27 HEADNECK
surviving fraction (AFIMOXIFENE; 0.5 nM): 1.09 ± 0.16 | surviving fraction (AFIMOXIFENE; 1 nM): 1.06 ± 0.14 | surviving fraction (AFIMOXIFENE; 5 nM): 1.05 ± 0.023 | surviving fraction (AFIMOXIFENE; 10 nM): 1.02 ± 0.059 | surviving fraction (AFIMOXIFENE; 50 nM): 1.16 ± 0.063 | surviving fraction (AFIMOXIFENE; 100 nM): 1 ± 0.23 | surviving fraction (AFIMOXIFENE; 500 nM): 1.21 ± 0.11 | surviving fraction (AFIMOXIFENE; 1000 nM): 1.1 ± 0.078 | surviving fraction (CABOZANTINIB; 0.5 nM): 1.02 ± 0.036 | surviving fraction (CABOZANTINIB; 1 nM): 1.06 ± 0.021 | surviving fraction (CABOZANTINIB; 5 nM): 0.971 ± 0.054 | surviving fraction (CABOZANTINIB; 10 nM): 0.996 ± 0.1 | surviving fraction (CABOZANTINIB; 50 nM): 1.14 ± 0.079 | surviving fraction (CABOZANTINIB; 100 nM): 1.03 ± 0.13 | surviving fraction (CABOZANTINIB; 500 nM): 0.975 ± 0.14 | surviving fraction (CABOZANTINIB; 1000 nM): 0.9483 ± 0.007

SG28 HEADNECK
surviving fraction (AFIMOXIFENE; 0.5 nM): 1.208 ± 0.0021 | surviving fraction (AFIMOXIFENE; 1 nM): 1.04 ± 0.057 | surviving fraction (AFIMOXIFENE; 5 nM): 1.1 ± 0.15 | surviving fraction (AFIMOXIFENE; 10 nM): 0.965 ± 0.1 | surviving fraction (AFIMOXIFENE; 50 nM): 1.14 ± 0.1 | surviving fraction (AFIMOXIFENE; 100 nM): 0.985 ± 0.04 | surviving fraction (AFIMOXIFENE; 500 nM): 1.12 ± 0.04 | surviving fraction (AFIMOXIFENE; 1000 nM): 1.05 ± 0.088 | surviving fraction (CABOZANTINIB; 0.5 nM): 1.07 ± 0.047 | surviving fraction (CABOZANTINIB; 1 nM): 1.12 ± 0.061 | surviving fraction (CABOZANTINIB; 5 nM): 0.968 ± 0.099 | surviving fraction (CABOZANTINIB; 10 nM): 0.959 ± 0.023 | surviving fraction (CABOZANTINIB; 50 nM): 1 ± 0.06 | surviving fraction (CABOZANTINIB; 100 nM): 1 ± 0.16 | surviving fraction (CABOZANTINIB; 500 nM): 1.06 ± 0.058 | surviving fraction (CABOZANTINIB; 1000 nM): 1.19 ± 0.26

SG31 HEADNECK
surviving fraction (AFIMOXIFENE; 0.5 nM): 1.4 ± 0.15 | surviving fraction (AFIMOXIFENE; 1 nM): 1.21 ± 0.07 | surviving fraction (AFIMOXIFENE; 5 nM): 1.18 ± 0.16 | surviving fraction (AFIMOXIFENE; 10 nM): 1.06 ± 0.095 | surviving fraction (AFIMOXIFENE; 50 nM): 1.07 ± 0.15 | surviving fraction (AFIMOXIFENE; 100 nM): 1.09 ± 0.051 | surviving fraction (AFIMOXIFENE; 500 nM): 1.08 ± 0.099 | surviving fraction (CABOZANTINIB; 0.5 nM): 1.1 ± 0.21 | surviving fraction (CABOZANTINIB; 1 nM): 1.07 ± 0.2 | surviving fraction (CABOZANTINIB; 5 nM): 0.981 ± 0.073 | surviving fraction (CABOZANTINIB; 10 nM): 0.97 ± 0.14 | surviving fraction (CABOZANTINIB; 50 nM): 1.07 ± 0.24 | surviving fraction (CABOZANTINIB; 100 nM): 0.97 ± 0.07 | surviving fraction (CABOZANTINIB; 500 nM): 1.1 ± 0.067 | surviving fraction (CABOZANTINIB; 1000 nM): 1.11 ± 0.082

SG32 HEADNECK
surviving fraction (AFIMOXIFENE; 0.5 nM): 1.09 ± 0.33 | surviving fraction (AFIMOXIFENE; 1 nM): 1.93 ± 1.3 | surviving fraction (AFIMOXIFENE; 5 nM): 1.26 ± 0.11 | surviving fraction (AFIMOXIFENE; 10 nM): 1.18 ± 0.25 | surviving fraction (AFIMOXIFENE; 50 nM): 1.09 ± 0.093 | surviving fraction (AFIMOXIFENE; 100 nM): 0.982 ± 0.053 | surviving fraction (AFIMOXIFENE; 500 nM): 1.12 ± 0.087 | surviving fraction (AFIMOXIFENE; 1000 nM): 1.21 ± 0.2 | surviving fraction (CABOZANTINIB; 0.5 nM): 1.06 ± 0.18 | surviving fraction (CABOZANTINIB; 1 nM): 1 ± 0.17 | surviving fraction (CABOZANTINIB; 5 nM): 0.922 ± 0.1 | surviving fraction (CABOZANTINIB; 10 nM): 1.04 ± 0.29 | surviving fraction (CABOZANTINIB; 50 nM): 0.901 ± 0.1 | surviving fraction (CABOZANTINIB; 100 nM): 0.961 ± 0.13 | surviving fraction (CABOZANTINIB; 500 nM): 0.968 ± 0.1 | surviving fraction (CABOZANTINIB; 1000 nM): 0.711 ± 0.05

SG43 HEADNECK
surviving fraction (AFIMOXIFENE; 0.5 nM): 0.934 ± 0.082 | surviving fraction (AFIMOXIFENE; 1 nM): 1.06 ± 0.26 | surviving fraction (AFIMOXIFENE; 5 nM): 1.14 ± 0.34 | surviving fraction (AFIMOXIFENE; 10 nM): 0.825 ± 0.14 | surviving fraction (AFIMOXIFENE; 50 nM): 0.903 ± 0.016 | surviving fraction (AFIMOXIFENE; 100 nM): 1 ± 0.14 | surviving fraction (AFIMOXIFENE; 500 nM): 1.16 ± 0.12 | surviving fraction (AFIMOXIFENE; 1000 nM): 0.927 ± 0.13 | surviving fraction (CABOZANTINIB; 0.5 nM): 0.887 ± 0.051 | surviving fraction (CABOZANTINIB; 1 nM): 0.863 ± 0.15 | surviving fraction (CABOZANTINIB; 5 nM): 0.883 ± 0.019 | surviving fraction (CABOZANTINIB; 10 nM): 0.788 ± 0.11 | surviving fraction (CABOZANTINIB; 50 nM): 0.759 ± 0.18 | surviving fraction (CABOZANTINIB; 100 nM): 0.737 ± 0.2 | surviving fraction (CABOZANTINIB; 500 nM): 0.757 ± 0.056 | surviving fraction (CABOZANTINIB; 1000 nM): 0.708 ± 0.072
